Data on ten compounds can be found in paper PMC4403932 (Journal of Medicinal Chemistry, 2015).

Format in all cases: binding
The target of one test is T1, BRD4(2) (Homo sapiens, UniProt O60885).
T1 construct: made in house
Nature of the test: Protein stability (thermal) shift assay, BRD4(2). The conditions noted are these: compound 10 μM, protein 2 μM; average of triplicate. The protocol: (§1) Thermal melting experiments were carried out using an Mx3005p real time PCR machine (Stratagene). Proteins were buffered in 10 mM HEPES, pH 7.5, 500 mM NaCl and assayed in a 96-well plate at a final concentration of 2 μM in 20 μL volume. Compounds were added at a final concentration of 10 or 100 μM. SYPRO Orange (Molecular Probes) was added as a fluorescence probe at a dilution of 1 in 1000. Excitation and emission filters for the SYPRO-Orange dye were set to 465 and 590 nm, respectively. The temperature was raised with a step of 3 °C per minute from 25 to 96 °C, and fluorescence readings were taken at each interval. The temperature dependence of the fluorescence during the protein denaturation process was approximated by the equation [drawing 1] where ΔuG is the difference in unfolding free energy between the folded and unfolded state, R is the gas constant, and yF and yU are the fluorescence intensity of the probe in the presence of completely folded and unfolded protein, respectively.[65] The baselines of the denatured and native states were approximated by a linear fit. The observed temperature shifts, ΔTm^obs, were recorded as the difference between the transition midpoints of sample and reference wells containing protein without ligand in the same plate and determined by nonlinear least-squares fit. Temperature shifts (ΔTm^obs) for three independent measurements per proteins/compound are summarized in Supporting Information Table S1.

The target of a further test is T2, BRD9 (Homo sapiens, UniProt Q9H8M2).
T2 construct: made in house
T2 sequence (Q9H8M2 136-240 limits assumed): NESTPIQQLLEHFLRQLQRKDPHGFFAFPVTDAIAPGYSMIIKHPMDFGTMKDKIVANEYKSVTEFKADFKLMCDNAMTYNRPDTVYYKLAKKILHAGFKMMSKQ
Nature of the test: Protein stability (thermal) shift assay, BRD9. The conditions noted are these: compound 10 μM, protein 2 μM; average of triplicate; read-out: ΔTm Shift, BRD9. The protocol: as §1

Another test has as its target T3, BRD2(2) (Homo sapiens, UniProt P25440).
T3 construct: made in house
Nature of the test: Protein stability (thermal) shift assay, BRD2(2). To be noted: compound 10 μM, protein 2 μM; average of triplicate. Here is the method:
as §1

In another test the target is T4, BRD4(1) (Homo sapiens, UniProt O60885).
T4 construct: made in house
In words: Protein stability (thermal) shift assay, BRD4(1). The conditions noted are these: compound 10 μM, protein 2 μM; average of triplicate; read-out: ΔTm Shift, BRD4(1). Here is the method:
as §1

In the next test the target is T5, BRDT(2) (Homo sapiens, UniProt Q58F21).
T5 construct: made in house
Nature of the test: Protein stability (thermal) shift assay, BRDT(2). To be noted: compound 10 μM, protein 2 μM; average of triplicate; read-out: ΔTm Shift, BRDT(2). Here is the method: as §1

In the next test the target is T6, BRD3(1) (Homo sapiens, UniProt Q15059).
T6 construct: Fragments were tested in a thermal shift assay against bromodomains of the BET subfamily; made in house
Nature of the test: Protein stability (thermal) shift assay, BRD3(1). To be noted: compound 10 μM, protein 2 μM; average of triplicate. Here is the method:
as §1

In a further test the target is T7, BAZ2B (Homo sapiens, UniProt Q9UIF8).
T7 construct: representative BRDs from other structural subfamilies (family I, PCAF); family III, CREBBP; family IV, BRD9; family V, BAZ2B; made in house
T7 sequence (Q9UIF8 2060-2164 limits assumed): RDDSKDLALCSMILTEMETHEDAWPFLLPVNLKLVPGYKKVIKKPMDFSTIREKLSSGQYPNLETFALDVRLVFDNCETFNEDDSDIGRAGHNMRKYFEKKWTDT
In words: Protein stability (thermal) shift assay, BAZ2B. The conditions noted are these: compound 10 μM, protein 2 μM; average of triplicate; read-out: ΔTm Shift, BAZ2BA. Here is the method: as §1

Another test addresses T8, PCAF (Homo sapiens, UniProt Q92831).
T8 construct: representative BRDs from other structural subfamilies (family I, PCAF); made in house
T8 sequence (Q92831 723-827 limits assumed): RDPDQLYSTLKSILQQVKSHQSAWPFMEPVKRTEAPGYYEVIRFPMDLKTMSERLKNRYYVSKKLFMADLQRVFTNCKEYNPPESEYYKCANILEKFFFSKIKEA
Nature of the test: Protein stability (thermal) shift assay, PCAF. To be noted: compound 10 μM, protein 2 μM; average of triplicate. The protocol: as §1

A further test addresses T9, PB1(5) (Homo sapiens, UniProt Q86U86).
T9 construct: made in house
In words: Protein stability (thermal) shift assay, PB1(5). To be noted: compound 10 μM, protein 2 μM; average of triplicate. The protocol: as §1

The target of the next test is T10, CREBBP (Homo sapiens, UniProt Q92793).
T10 construct: small thermal shits (1.0–1.3 °C) for the bromodomain of CREBBP; made in house
Nature of the test: Protein stability (thermal) shift assay, CREBBP. To be noted: compound 10 μM, protein 2 μM; average of triplicate; read-out: ΔTm Shift, CREBBP. Here is the method:
as §1

The target of the next test is T11, BRD2(1) (Homo sapiens, UniProt P25440).
T11 construct: Fragments were tested in a thermal shift assay against bromodomains of the BET subfamily; made in house
Nature of the test: Protein stability (thermal) shift assay, BRD2(1). To be noted: compound 10 μM, protein 2 μM; average of triplicate. Here is the method: as §1

In another test the target is T12, BRDT(1) (Homo sapiens, UniProt Q58F21).
T12 construct: made in house
Nature of the test: Protein stability (thermal) shift assay, BRDT(1). The conditions noted are these: compound 10 μM, protein 2 μM; average of triplicate. Here is the method:
as §1

The next test addresses T13, BRD3(2) (Homo sapiens, UniProt Q15059).
T13 construct: made in house
Nature of the test: Protein stability (thermal) shift assay, BRD3(2). The conditions noted are these: compound 10 μM, protein 2 μM; average of triplicate. The protocol: as §1

T10 sequence (Q92793 1085-1192 limits assumed): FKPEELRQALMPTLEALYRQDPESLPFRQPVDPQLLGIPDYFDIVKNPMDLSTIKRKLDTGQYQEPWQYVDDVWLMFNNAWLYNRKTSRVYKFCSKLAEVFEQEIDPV
T11 sequence (P25440 74-180 limits assumed): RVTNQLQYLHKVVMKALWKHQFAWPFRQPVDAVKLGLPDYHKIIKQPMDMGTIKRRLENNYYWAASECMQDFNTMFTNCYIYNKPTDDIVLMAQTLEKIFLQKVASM
T6 sequence (Q15059 34-140 limits assumed): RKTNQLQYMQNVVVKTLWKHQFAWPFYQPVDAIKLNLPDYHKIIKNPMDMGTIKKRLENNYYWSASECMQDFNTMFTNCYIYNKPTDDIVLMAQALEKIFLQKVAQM
T13 sequence (Q15059 306-415 limits assumed): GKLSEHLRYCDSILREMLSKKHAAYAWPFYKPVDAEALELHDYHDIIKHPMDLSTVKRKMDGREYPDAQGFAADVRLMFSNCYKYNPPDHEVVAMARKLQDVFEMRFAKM
T9 sequence (Q86U86 653-763 limits assumed): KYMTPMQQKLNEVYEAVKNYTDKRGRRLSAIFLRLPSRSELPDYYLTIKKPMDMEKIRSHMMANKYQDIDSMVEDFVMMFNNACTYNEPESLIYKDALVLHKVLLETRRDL
T3 sequence (P25440 344-453 limits assumed): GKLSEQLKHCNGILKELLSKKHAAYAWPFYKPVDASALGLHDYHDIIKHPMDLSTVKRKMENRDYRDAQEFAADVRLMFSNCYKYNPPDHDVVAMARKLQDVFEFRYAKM

As for `COc1cccc(OC(C)C)c1-c1nc(N)nc2[nH]cnc12` [Compound 6b, 2-Amino-6-(2-isopropoxy-6-methoxyphenyl)-9H-purine], the ΔTm at 10 µM was -0.845 °C at BRD4(2); -0.162 °C on BRD9; -0.3 °C at BRD2(2); 0.6 °C at BRD4(1); 0.447 °C at BRDT(2); 0.651 °C on BRD3(1). In addition, the ΔTm at 10 µM on BAZ2B is -0.3 °C; at PCAF it was -0.261 °C; on PB1(5) it was 0.216 °C; at CREBBP it was -0.1 °C; at BRD2(1) it was -0.459 °C; on BRDT(1) it was 0.165 °C. Further, the ΔTm at 10 µM on BRD3(2) stood at 0.6 °C.

As to `Nc1nc(-c2cccc(OCc3ccc(Cl)cc3)c2)c2nc[nH]c2n1` [Compound 4d, 2-Amino-6-(3-(4′-chlorobenzyloxy)phenyl)-9H-purine], the ΔTm at 10 µM on BRD4(2) was 1 °C; at BRD2(2), 1.4 °C; on BRD4(1), 1.5 °C; at BRDT(2) it was 1.2 °C; on BRD3(1), 0.7 °C; at BAZ2B, 0.653 °C. Moreover, the ΔTm at 10 µM at PCAF worked out at 0.7 °C; at PB1(5), 0.553 °C; on CREBBP, 1.5 °C; on BRD2(1), 0.643 °C; at BRDT(1), 0.7 °C; on BRD3(2) it was 1.2 °C.

Consider `COCCc1ccc(OCc2ccc(-c3nc(N)nc4[nH]cnc34)cc2)cc1` [Compound 3h, 2-Amino-6-(4-((4′-(2-methoxyethyl)phenoxy)methyl)phenyl)-9H-purine], for which the ΔTm at 10 µM is -2.8 °C at BRD4(2); -0.532 °C at BRD9; 1.2 °C on BRD2(2); 0.6 °C at BRD4(1); 0.7 °C at BRDT(2); 0.5 °C at BRD3(1). The ΔTm at 10 µM on BAZ2B is -0.127 °C; at PCAF, -0.2 °C; on PB1(5) it was 0.5 °C; at CREBBP, 1 °C; on BRD2(1), 0.354 °C; on BRDT(1), 0.528 °C. Further, the ΔTm at 10 µM at BRD3(2) came to 2 °C.

In the case of `Nc1nc(-c2ccc(COc3cccc(C(F)(F)F)c3)cc2)c2nc[nH]c2n1` [Compound 3g, 2-Amino-6-(4-(3′-(trifluoromethyl)phenoxymethyl)phenyl)-9H-purine], the ΔTm at 10 µM at BRD4(2) is -7.9 °C; at BRD9, -0.9 °C; at BRD2(2), 0.459 °C; at BRD4(1) it was -0.18 °C; on BRDT(2), 0.271 °C; at BRD3(1) it was -0.125 °C. In addition, the ΔTm at 10 µM was -1 °C at BAZ2B; 0.1 °C on PCAF; 0.339 °C at PB1(5); 0.363 °C at CREBBP; -0.5 °C at BRD2(1); -0.322 °C on BRDT(1). The ΔTm at 10 µM at BRD3(2) was found to be 0.215 °C.

Regarding `COc1cccc(OCC(C)C)c1-c1nc(N)nc2[nH]cnc12` [Compound 6c, 2-Amino-6-(2-isobutoxy-6-methoxyphenyl)-9H-purine], the ΔTm at 10 µM was 0.4 °C at BRD4(2); -0.0523 °C on BRD9; 0.6 °C at BRD2(2); 1 °C on BRD4(1); 0.8 °C on BRDT(2); 1.2 °C at BRD3(1). Besides, the ΔTm at 10 µM at BAZ2B is -0.147 °C; on PCAF, -0.121 °C; on PB1(5) it was -0.324 °C; on CREBBP, -0.4 °C; at BRD2(1), 0.187 °C; at BRDT(1) it was -0.0153 °C. Also, the ΔTm at 10 µM at BRD3(2) is 1.1 °C.

Regarding `Nc1nc(-c2ccc(OCc3ccccc3)c(Cl)c2)c2nc[nH]c2n1` [Compound 4a, 2-Amino-6-(4-benzyloxy-3-chlorophenyl)-9H-purine], the ΔTm at 10 µM on BRD4(2) is -2.6 °C; at BRD9 it was -1.7 °C; at BRD2(2), -0.5 °C; at BRD4(1) it was -0.15 °C; at BRDT(2) it was 0.224 °C; on BRD3(1), -0.252 °C. Moreover, the ΔTm at 10 µM at BAZ2B was -0.367 °C; on PCAF it was -0.2 °C; at PB1(5), 0.536 °C; on CREBBP, 0.9 °C; on BRD2(1), -0.5 °C; on BRDT(1), -0.0553 °C. In addition, the ΔTm at 10 µM on BRD3(2) was -0.092 °C.

Consider `Nc1nc(-c2ccc3c(c2)OCCO3)c2nc[nH]c2n1` [Compound 4c, 2-Amino-6-(2,3-dihydrobenzo[b][1,4]dioxin-6-yl)-9H-purine], for which the ΔTm at 10 µM was -1.3 °C at BRD4(2); 0.8 °C at BRD9; -0.0273 °C on BRD2(2); 0.4 °C at BRD4(1); -0.166 °C at BRDT(2); 0.0747 °C on BRD3(1). The ΔTm at 10 µM on BAZ2B is -0.9 °C; on PCAF, -1.2 °C; on PB1(5), -1.6 °C; at CREBBP, -1.5 °C; at BRD2(1), -0.3 °C; on BRDT(1) it was -0.125 °C. In addition, the ΔTm at 10 µM on BRD3(2) was 0.9 °C.

Regarding `COc1cc(COc2ccc(-c3nc(N)nc4[nH]cnc34)cc2Cl)cc(OC)c1` [Compound 4b, 2-Amino-6-(3-chloro-4-(3′,5′-dimethoxybenzyloxy)phenyl)-9H-purine], the ΔTm at 10 µM at BRD4(2) was -2.9 °C; at BRD9 it was -2 °C; on BRD2(2), 0.159 °C; at BRD4(1), 0.54 °C; at BRDT(2) it was 0.7 °C; on BRD3(1), 0.445 °C. Besides, the ΔTm at 10 µM at BAZ2B was 2.3 °C; at PCAF, 1.6 °C; on PB1(5), 0.7 °C; at CREBBP, -0.04 °C; on BRD2(1), -0.113 °C; at BRDT(1), 0.658 °C. For the same compound, the ΔTm at 10 µM at BRD3(2) is -0.379 °C.

With `COc1cccc(OC)c1-c1nc(N)nc2[nH]cnc12` [Compound 6a, 2-Amino-6-(2,6-dimethoxyphenyl)-9H-purine], the ΔTm at 10 µM on BRD4(2) is -1.3 °C; at BRD9, -0.1 °C; on BRD2(2), 0.4 °C; at BRD4(1) it was 0.7 °C; on BRDT(2), 0.364 °C; on BRD3(1), 0.341 °C. For the same compound, the ΔTm at 10 µM is 0.0167 °C at BAZ2B; -0.4 °C at PCAF; 0.4 °C on PB1(5); 0.34 °C on CREBBP; 0.167 °C on BRD2(1); -0.122 °C at BRDT(1). In addition, the ΔTm at 10 µM on BRD3(2) was determined as 1.3 °C.

Take `Clc1nc(Cl)c2nc[nH]c2n1` [Compound 1, 2,6-dichloro-9H-purine]: the ΔTm at 10 µM on BRD4(2) is 0.5 °C; on BRD2(2), -0.374 °C; at BRD4(1), 1.6 °C; at BRDT(2), -0.234 °C; at BRD3(1) it was 0.7 °C; at BAZ2B, -0.1 °C. Besides, the ΔTm at 10 µM on PCAF is -0.8 °C; at PB1(5), 1.4 °C; at CREBBP, 1.6 °C; on BRD2(1), 0.361 °C; on BRDT(1), -0.8 °C; at BRD3(2), -0.159 °C.
